Patent US9839642B2, “Beta-tetrazolyl-propionic acids as metallo-beta-lactamase inhibitors” (priority 2014, dated 2017)
Like-named read-outs stand apart in the source and are kept apart here.

Key:
NDM-1 = NDM-1 (Klebsiella pneumoniae, UniProt C7C422); experiment: Enzyme activity: determination of IC50, fluorescence assay with CCF2-FA substrate; assay type: biochemical; details: CCF2-FA 1.25 μM, 2 hours at 25° C., read-out: NDM1 IC50
Procedure, shortened: (§1)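 In pH 7 phosphate buffer (100 mM) with 10 μM ZnSO4 and 0.005% Tween-20, CCF2-FA substrate (1.25 μM final) was hydrolysed for 2 h at 25 °C by NDM-1, IMP-1 or VIM-1 at 1, 2 or 30 pM in the presence of inhibitor at 20–0.00063 μM. Emission 460 nm/excitation 405 nm; 4-parameter curve fit gave IC50.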

IMP-1 = IMP-1 (Serratia marcescens, UniProt P52699); experiment: as above; assay type: biochemical; details: CCF2-FA 1.25 μM, 2 hours at 25° C., read-out: IMP1 IC50
Procedure, shortened: as §1

VIM-1 = VIM-1 (Pseudomonas aeruginosa, UniProt A0A0F7KYQ8); experiment: as above; assay type: biochemical; details: CCF2-FA 1.25 μM, 2 hours at 25° C., read-out: VIM1 IC50
Procedure, shortened: as §1

[1] = test system: Klebsiella pneumoniae expressing VIM-1 (IHMA599644); experiment: Antibiotic potentiation activity: synergistic concentration (MITC95) with imipenem, growth by OD600; assay type: cell-based
Procedure, shortened: (§2)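 MITC95 = lowest inhibitor concentration giving 95% growth inhibition, read by absorbance after 22–24 h at 35° C. Compound range 200 μM to 0.195 μM, imipenem fixed at 1 or 4 μg/ml, bacteria in 1.1×CAMHB from saline suspension diluted 1:100.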

[2] = test system: Escherichia coli expressing NDM-1 (CLB30016); experiment: as above; assay type: cell-based
Procedure, shortened: as §2

[3] = test system: Serratia marcescens expressing IMP-1 (CL5741); experiment: as above; assay type: cell-based
Procedure, shortened: as §2

[4] = 95% inhibition of bacterial growth, strain IHMA599644
[5] = 95% inhibition of bacterial growth, strain CLB30016
[6] = 95% inhibition of bacterial growth, strain CL5741
[7] = K. pneumoniae IHMA599644 (VIM-1), 95% inhibition of growth
[8] = E. coli CLB30016 (NDM-1), 95% inhibition of growth
[9] = S. marcescens CL5741 (IMP-1), 95% inhibition of growth

Sequence of IMP-1 (P52699 19-246, looked up, species assumed): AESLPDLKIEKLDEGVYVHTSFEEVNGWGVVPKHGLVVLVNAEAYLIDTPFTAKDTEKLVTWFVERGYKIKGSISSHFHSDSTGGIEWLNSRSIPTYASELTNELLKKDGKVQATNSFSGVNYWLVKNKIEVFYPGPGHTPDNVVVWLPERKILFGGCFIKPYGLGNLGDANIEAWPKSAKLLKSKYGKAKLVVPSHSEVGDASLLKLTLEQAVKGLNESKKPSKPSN
Sequence of NDM-1 (C7C422 29-270, looked up, species assumed): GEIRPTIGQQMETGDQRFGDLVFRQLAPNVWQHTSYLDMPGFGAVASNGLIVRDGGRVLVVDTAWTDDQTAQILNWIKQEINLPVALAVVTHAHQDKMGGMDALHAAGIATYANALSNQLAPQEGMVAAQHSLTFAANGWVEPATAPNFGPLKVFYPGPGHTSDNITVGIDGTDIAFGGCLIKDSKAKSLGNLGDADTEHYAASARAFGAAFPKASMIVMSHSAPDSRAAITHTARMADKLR

CCC[C@H](C(=O)O)[C@H](Cc1ccc(N2CCN(c3ccncc3)CC2)cc1)c1nn[nH]n1 [Example 227, (2S)-2-[(1S)-2-[4-(4-pyridin-4-ylpiperazin-1-yl)phenyl]-1-(2H-tetrazol-5-yl)ethyl]pentanoic acid]
IC50 (NDM-1; enzyme 1 pM): 54 nM
IC50 (IMP-1; enzyme 2 pM): 380 nM
IC50 (VIM-1; enzyme 30 pM): 51 nM
VIM1 KP599644 MITC95 [1, 4]: 75 µM
NDM1 EC30016 MITC95 [2, 5]: 16 µM
IMP1 SM5741 MITC95 [3, 6]: 12.5 µM

CCC[C@H](C(=O)O)[C@H](Cc1ccc(N2CCN(C(C)=O)CC2)cc1)c1nn[nH]n1 [Example 228, (2S)-2-[(1S)-2-[4-(4-acetylpiperazin-1-yl)phenyl]-1-(2H-tetrazol-5-yl)ethyl]pentanoic acid]
IC50 (NDM-1; enzyme 1 pM): 33 nM
IC50 (IMP-1; enzyme 2 pM): 220 nM
IC50 (VIM-1; enzyme 30 pM): 15 nM
VIM1 KP599644 MITC95 [1, 4]: 200 µM
NDM1 EC30016 MITC95 [2, 5]: 75 µM
IMP1 SM5741 MITC95 [3, 6]: 16 µM

CCC[C@H](C(=O)O)[C@H](Cc1ccc(N2CCC[C@@H](N)C2)cc1)c1nn[nH]n1 [Example 229, (2S)-2-[(1S)-2-{4-[(3R)-3-aminopiperidin-1-yl]phenyl}-1-(2H-tetrazol-5-yl)ethyl]pentanoic acid]
IC50 (NDM-1; enzyme 1 pM): 370 nM
IC50 (IMP-1; enzyme 2 pM): 1200 nM
IC50 (VIM-1; enzyme 30 pM): 25 nM
VIM1 KP599644 MITC95 [1, 4]: 25 µM
NDM1 EC30016 MITC95 [2, 5]: 12.5 µM
IMP1 SM5741 MITC95 [3, 6]: 25 µM

CCC[C@H](C(=O)O)[C@H](Cc1ccc(N2CCC[C@H](N)C2)cc1)c1nn[nH]n1 [Example 230, (2S)-2-[(1S)-2-{4-[(3S)-3-aminopiperidin-1-yl]phenyl}-1-(2H-tetrazol-5-yl)ethyl]pentanoic acid]
IC50 (NDM-1; enzyme 1 pM): 300 nM
IC50 (IMP-1; enzyme 2 pM): 1100 nM
IC50 (VIM-1; enzyme 30 pM): 25 nM
VIM1 KP599644 MITC95 [1, 4]: 25 µM
NDM1 EC30016 MITC95 [2, 5]: 31 µM
IMP1 SM5741 MITC95 [3, 6]: 25 µM

CCC[C@H](C(=O)O)[C@H](Cc1ccc(N2CCN(C)CC2)cc1)c1nn[nH]n1 [Example 231, (2S)-2-[(1S)-2-[4-(4-methylpiperazin-1-yl)phenyl]-1-(2H-tetrazol-5-yl)ethyl]pentanoic acid]
IC50 (NDM-1; enzyme 1 pM): 160 nM
IC50 (IMP-1; enzyme 2 pM): 450 nM
IC50 (VIM-1; enzyme 30 pM): 69 nM
VIM1 KP599644 MITC95 [1, 4]: 50 µM
NDM1 EC30016 MITC95 [2, 5]: 18.8 µM
IMP1 SM5741 MITC95 [3, 6]: 18.8 µM

CCC[C@H](C(=O)O)[C@H](Cc1ccc(N2CCN3CCCC3C2)cc1)c1nn[nH]n1 (stereo partly drawn) [Example 232, (2S)-2-[(1S)-2-[4-(hexahydropyrrolo[1,2-a]pyrazin-2(1H)-yl)phenyl]-1-(2H-tetrazol-5-yl)ethyl]pentanoic acid]
IC50 (NDM-1; enzyme 1 pM): 180 nM
IC50 (IMP-1; enzyme 2 pM): 420 nM
IC50 (VIM-1; enzyme 30 pM): 90 nM
VIM1 KP599644 MITC95 [1, 4]: 50 µM
NDM1 EC30016 MITC95 [2, 5]: 12.5 µM
IMP1 SM5741 MITC95 [3, 6]: 12.5 µM

CC(C)(C)[C@H](C(=O)O)[C@H](Cc1ccccc1)c1nnn[nH]1 [Example 258, (2R,3S)-2-(tert-butyl)-4-phenyl-3-(1H-tetrazol-5-yl)butanoic acid]
IC50 (NDM-1; NDM-1 enzyme 1 pM): 91 nM
IC50 (IMP-1; IMP-1 enzyme 2 pM): 35 nM
IC50 (VIM-1; VIM-1 enzyme 30 pM): 100 nM
VIM1 KP599644 MITC95 [1, 7]: 100 µM
NDM1 EC30016 MITC95 [2, 8]: 11 µM
IMP1 SM5741 MITC95 [3, 9]: 2.3 µM

CCC[C@H](C(=O)O)[C@H](Cc1ccccc1F)c1nnn[nH]1 [Example 259, (S)-2-((S)-2-(2-fluorophenyl)-1-(1H-tetrazol-5-yl)ethyl)pentanoic acid]
IC50 (NDM-1; NDM-1 enzyme 1 pM): 37 nM
IC50 (IMP-1; IMP-1 enzyme 2 pM): 930 nM
IC50 (VIM-1; VIM-1 enzyme 30 pM): 4.2 nM
VIM1 KP599644 MITC95 [1, 7]: 12.5 µM
NDM1 EC30016 MITC95 [2, 8]: 9.4 µM
IMP1 SM5741 MITC95 [3, 9]: 12.5 µM

CCC[C@H](C(=O)O)[C@H](Cc1cccc(F)c1)c1nnn[nH]1 [Example 260, (2S)-2-[(1S)-2-(3-fluorophenyl)-1-(1H-tetrazol-5-yl)ethyl]pentanoic acid]
IC50 (NDM-1; NDM-1 enzyme 1 pM): 75 nM
IC50 (IMP-1; IMP-1 enzyme 2 pM): 870 nM
IC50 (VIM-1; VIM-1 enzyme 30 pM): 3.7 nM
VIM1 KP599644 MITC95 [1, 7]: 18.8 µM
NDM1 EC30016 MITC95 [2, 8]: 6.2 µM
IMP1 SM5741 MITC95 [3, 9]: 12.5 µM

CCC[C@H](C(=O)O)[C@H](Cc1ccc(F)cc1)c1nnn[nH]1 [Example 261, (2S)-2-[(1S)-2-(4-fluorophenyl)-1-(1H-tetrazol-5-yl)ethyl]pentanoic acid]
IC50 (NDM-1; NDM-1 enzyme 1 pM): 110 nM
IC50 (IMP-1; IMP-1 enzyme 2 pM): 910 nM
IC50 (VIM-1; VIM-1 enzyme 30 pM): 3.8 nM
VIM1 KP599644 MITC95 [1, 7]: 12.5 µM
NDM1 EC30016 MITC95 [2, 8]: 9.4 µM
IMP1 SM5741 MITC95 [3, 9]: 12.5 µM

CCC[C@H](C(=O)O)[C@H](Cc1ccc(F)cc1F)c1nnn[nH]1 [Example 262, (2S)-2-[(1S)-2-(2,4-difluorophenyl)-1-(1H-tetrazol-5-yl)ethyl]pentanoic acid]
IC50 (NDM-1; NDM-1 enzyme 1 pM): 70 nM
IC50 (IMP-1; IMP-1 enzyme 2 pM): 1300 nM
IC50 (VIM-1; VIM-1 enzyme 30 pM): 3.1 nM
VIM1 KP599644 MITC95 [1, 7]: 12.5 µM
NDM1 EC30016 MITC95 [2, 8]: 6.2 µM
IMP1 SM5741 MITC95 [3, 9]: 18.8 µM

CCC[C@H](C(=O)O)[C@H](Cc1ccc(Cl)cc1)c1nnn[nH]1 [Example 263, (2S)-2-[(1S)-2-(4-chlorophenyl)-1-(1H-tetrazol-5-yl)ethyl]pentanoic acid]
IC50 (NDM-1; NDM-1 enzyme 1 pM): 57 nM
IC50 (IMP-1; IMP-1 enzyme 2 pM): 430 nM
IC50 (VIM-1; VIM-1 enzyme 30 pM): 2.4 nM
VIM1 KP599644 MITC95 [1, 7]: 9.4 µM
NDM1 EC30016 MITC95 [2, 8]: 9.4 µM
IMP1 SM5741 MITC95 [3, 9]: 12.5 µM

CCC[C@H](C(=O)O)[C@H](Cc1cccnc1)c1nnn[nH]1 [Example 264, (S)-2-((S)-2-(pyridin-3-yl)-1-(1H-tetrazol-5-yl)ethyl)pentanoic acid]
IC50 (NDM-1; NDM-1 enzyme 1 pM): 370 nM
IC50 (IMP-1; IMP-1 enzyme 2 pM): 7100 nM
IC50 (VIM-1; VIM-1 enzyme 30 pM): 16 nM
VIM1 KP599644 MITC95 [1, 7]: 18.8 µM
NDM1 EC30016 MITC95 [2, 8]: 2.3 µM
IMP1 SM5741 MITC95 [3, 9]: 100 µM

CCC[C@H](C(=O)O)[C@H](C[C@@H](C)c1ccccc1)c1nnn[nH]1 [Example 265, (2S,3S,5R)-5-phenyl-2-propyl-3-(1H-tetrazol-5-yl)hexanoic acid]
IC50 (NDM-1; NDM-1 enzyme 1 pM): 130 nM
IC50 (IMP-1; IMP-1 enzyme 2 pM): 1800 nM
IC50 (VIM-1; VIM-1 enzyme 30 pM): 24 nM
VIM1 KP599644 MITC95 [1, 7]: 75 µM
NDM1 EC30016 MITC95 [2, 8]: 18.8 µM
IMP1 SM5741 MITC95 [3, 9]: 50 µM

CCC[C@H](C(=O)O)[C@H](CCc1ccccc1)c1nnn[nH]1 [Example 266, (2S,3S)-5-phenyl-2-propyl-3-(1H-tetrazol-5-yl)pentanoic acid]
IC50 (NDM-1; NDM-1 enzyme 1 pM): 190 nM
IC50 (IMP-1; IMP-1 enzyme 2 pM): 1000 nM
IC50 (VIM-1; VIM-1 enzyme 30 pM): 20 nM
VIM1 KP599644 MITC95 [1, 7]: 25 µM
NDM1 EC30016 MITC95 [2, 8]: 12.5 µM
IMP1 SM5741 MITC95 [3, 9]: 38 µM

CCC[C@H](C(=O)O)[C@H](Cc1cc(C(F)(F)F)cc(C(F)(F)F)c1)c1nnn[nH]1 [Example 269, (2S)-2-[(1S)-2-[3,5-bis(trifluoromethyl)phenyl]-1-(1H-tetrazol-5-yl)ethyl]pentanoic acid]
IC50 (NDM-1; NDM-1 enzyme 1 pM): 36 nM
IC50 (IMP-1; IMP-1 enzyme 2 pM): 1500 nM
IC50 (VIM-1; VIM-1 enzyme 30 pM): 0.76 nM
VIM1 KP599644 MITC95 [1, 7]: 38 µM
NDM1 EC30016 MITC95 [2, 8]: 18.8 µM
IMP1 SM5741 MITC95 [3, 9]: 38 µM

CCC[C@H](C(=O)O)[C@H](Cc1ccc2nsnc2c1)c1nnn[nH]1 [Example 271, (2S)-2-[(1S)-2-(2,1,3-benzothiadiazol-5-yl)-1-(1H-tetrazol-5-yl)ethyl]pentanoic acid]
IC50 (NDM-1; NDM-1 enzyme 1 pM): 84 nM
IC50 (IMP-1; IMP-1 enzyme 2 pM): 650 nM
IC50 (VIM-1; VIM-1 enzyme 30 pM): 1.1 nM
VIM1 KP599644 MITC95 [1, 7]: 12.5 µM
NDM1 EC30016 MITC95 [2, 8]: 6.2 µM
IMP1 SM5741 MITC95 [3, 9]: 50 µM
